Test results reported in patent US20230151034A1 (COCRYSTAL PHARMA, INC., priority 2020, published 2023).
Like-named read-outs stand apart in the source and are kept apart here.

How the values were obtained:
[1] = biological target: Norwalk GGI.1 Norovirus protease (Norovirus, UniProt Q83883); assay: Noro-Norwalk FRET protease assay (Norwalk GGI.1); assay type: biochemical, Norwalk virus; details: FRET protease assay, read-out: Norwalk GGI.1 IC50
Procedure: (§1) Viral protease assays: The antiviral activities of inhibitors were determined by FRET (Fluorescence Resonance Energy Transfer) assay. Purified viral protease was incubated with the protease substrate peptide (Edans-DFHLQ/GP-Dabcyl) and inhibitor, and IC50 values were subsequently determined by the fluorescence signals.
The Noro-Norwalk FRET protease assay was performed in 50 mM HEPES-Na pH 8, 50 mM NaCl, 0.4 mM EDTA, 4% glycerol, and 6 mM DTT. A self-quenching peptide substrate [5-FAM]-[…]-[TAMRA] was custom synthesized by Anaspec. Compounds were diluted in 3-fold serial dilutions to final concentrations of 200 μM to 10.2 nM. Noro protease was added to a final concentration of 1-7 μM, depending on the enzyme activity level, and the peptide substrate was added to a final concentration of 10 μM. The assay was incubated 90 minutes at 37° C. and read in a Perkin Elmer Envision with excitation at 473 nm and emission measurement at 519 nm.

[2] = biological target: HuNV GGII.4 Norovirus protease (Norovirus GII.4 (human norovirus genogroup II genotype 4), UniProt P54634); assay: Norovirus protease FRET assay (HuNV GGII.4); assay type: biochemical; details: FRET protease assay, read-out: HuNV GGII.4 IC50
SARS2 protease = SARS2 protease (Severe acute respiratory syndrome coronavirus 2, UniProt P0DTD1); assay: SARS-CoV-2 protease inhibition assay (SARS2 FRET protease assay); assay type: biochemical; details: Table E; SARS-CoV-2 protease inhibition; read-out: IC50
Procedure: as §1
The SARS2 FRET protease assay was performed in 20 mM HEPES-Na pH 7, 120 mM NaCl, 0.4 mM EDTA, 0.01% Triton, 5% glycerol, and 4 mM DTT. A self-quenching peptide substrate 5-FAM-TSA VLQ SGF RKK (5TAMRA)-NH2 was custom synthesized by Anaspec. Compounds were diluted in 3-fold serial dilutions to final concentrations of 20 μM to 1.0 nM. SARS2 protease was added to a final concentration of 25 nM, depending on the enzyme activity level, and the peptide substrate was added to a final concentration of 1.3 μM. The assay was incubated 30 minutes at 30° C. and read in a Perkin Elmer Envision with excitation at 473 nm and emission measurement at 519 nm.

Norwalk GGI.1 Norovirus protease, sequence (Q83883 1101-1281): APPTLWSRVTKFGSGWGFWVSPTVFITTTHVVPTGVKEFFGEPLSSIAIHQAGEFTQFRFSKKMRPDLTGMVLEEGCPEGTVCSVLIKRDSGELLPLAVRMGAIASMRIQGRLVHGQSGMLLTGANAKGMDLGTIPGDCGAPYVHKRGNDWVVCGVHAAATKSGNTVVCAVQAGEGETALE
HuNV GGII.4 Norovirus protease, sequence (P54634 1009-1189): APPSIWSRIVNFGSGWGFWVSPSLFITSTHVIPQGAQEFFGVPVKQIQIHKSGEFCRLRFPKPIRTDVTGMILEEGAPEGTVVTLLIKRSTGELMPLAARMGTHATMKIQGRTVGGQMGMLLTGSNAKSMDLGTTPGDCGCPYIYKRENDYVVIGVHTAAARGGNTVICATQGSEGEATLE

| Structure (SMILES) | IC50 ([1]; Table C) [µM] | IC50 ([2]; Table C) [µM] | IC50 (SARS2 protease) [µM] | IC50 ([1]; Table D) [µM] | IC50 ([2]; Table D) [µM] |
| --- | --- | --- | --- | --- | --- |
| CCOC(=O)NCCN(C)C(=O)CC[C@@H](C=O)NC(=O)[C@H](CC1CCCCC1)NC(=O)OCc1cccc(Cl)c1 (stereo in doubt) [Compound A44, Ethyl ((5S,8S)-1-(3-chlorophenyl)-5-(cyclohexylmethyl)-8-formyl-12-methyl-3,6,11-trioxo-2-oxa-4,7,12-triazatetradecan-14-yl)carbamate] | 10.7 | 28.6 | > 200 |  |  |
| CN(C(=O)CC[C@@H](C=O)NC(=O)[C@H](CC1CCCCC1)NC(=O)OCc1cccc(Cl)c1)c1ccccc1 [Compound A19, 3-Chlorobenzyl ((S)-3-cyclohexyl-1-(((S)-5-(methyl (phenyl)amino)-1,5-dioxopentan-2-yl)amino)-1-oxopropan-2-yl) carbamate] | 1 | 3.3 | 40.3 |  |  |
| CCOP(=O)(OCC)C(O)[C@H](CCC(=O)N(C)CCNS(=O)(=O)CC)NC(=O)[C@H](CC1CCCCC1)NC(=O)OCc1cccc(Cl)c1 (stereo partly shown) [Compound A22] | 143 | > 200 | 2.3 |  |  |
| CN(C)C(=O)CC[C@@H](C=O)NC(=O)[C@H](CC1CCCCC1)NC(=O)OCc1cccc(Cl)c1 [Compound A6, 3-chlorobenzyl ((S)-3-cyclohexyl-1-(((S)-5-(dimethylamino)-1,5-dioxopentan-2-yl)amino)-1-oxopropan-2-yl)carbamate] | 2 | 18.7 | > 200 |  |  |
| CCNC(=O)CN(C)C(=O)CC[C@@H](C=O)NC(=O)[C@H](CC1CCCCC1)NC(=O)OCc1cccc(Cl)c1 [Compound A27, 3-Chlorobenzyl ((S)-3-cyclohexyl-1-(((S)-5-((2-(ethylamino)-2-oxoethyl) (methyl)amino)-1,5-dioxopentan-2-yl)amino)-1-oxopropan-2-yl)carbamate] | 2.7 | 11.3 | 137 |  |  |
| CN(CCc1ccncc1)C(=O)CC[C@@H](C=O)NC(=O)[C@H](CC1CCCCC1)NC(=O)OCc1cccc(Cl)c1 [Compound A68, 3-Chlorobenzyl ((S)-3-cyclohexyl-1-(((S)-5-(methyl (2-(pyridin-4-yl)ethyl)amino)-1,5-dioxopentan-2-yl)amino)-1-oxopropan-2-yl) carbamate] | 4.6 | 16.7 |  |  |  |
| CCCCCCCC1CCC/C=C/CC(C(=O)N(C)C)C[C@@H](C=O)NC(=O)C(CC(C)C)NC1=O (stereo partly shown) [Compound B4] |  |  | 156 | 149 | 149 |
| CCOP(=O)(OCC)C(O)[C@H](CCC(=O)N1CCOC(c2ccccc2)C1)NC(=O)[C@H](CC1CCCCC1)NC(=O)OCc1cccc(Cl)c1 (stereo partly drawn) [Compound A54, 3-Chlorobenzyl ((2S)-3-cyclohexyl-1-(((2S)-1-(diethoxyphosphoryl)-1-hydroxy-5-oxo-5-(2-phenylmorpholino)pentan-2-yl)amino)-1-oxopropan-2-yl)carbamate] | 36.3 | 161 | 19 |  |  |
| CCOP(=O)(OCC)C(O)[C@H](CCC(=O)N(C)c1ccccc1)NC(=O)[C@H](CC1CCCCC1)NC(=O)OCc1cccc(Cl)c1 (stereo partly drawn) [Compound A14, 3-Chlorobenzyl ((2S)-3-cyclohexyl-1-(((2S)-1-(diethoxyphosphoryl)-1-hydroxy-5-(methyl (phenyl)amino)-5-oxopentan-2-yl)amino)-1-oxopropan-2-yl) carbamate] | 50.9 | 70.1 | > 200 |  |  |
| CCOP(=O)(OCC)C(O)[C@H](CCC(=O)N(C)CCc1ccc(Cl)cc1)NC(=O)C(CC1CCCCC1)NC(=O)OCc1cccc(Cl)c1 (stereo in doubt) [Compound A40, 3-Chlorobenzyl ((2S)-1-(((2S)-5-((4-chlorophenethyl)(methyl)amino)-1-(diethoxyphosphoryl)-1-hydroxy-5-oxopentan-2-yl)amino)-3-cyclohexyl-1-oxopropan-2-yl)carbamate] | 117 | 199 | > 200 |  |  |
| CN(CCc1ccc(Cl)cc1)C(=O)CC[C@@H](C=O)NC(=O)[C@H](CC1CCCCC1)NC(=O)OCc1cccc(Cl)c1 (stereo in doubt) [Compound A48, 3-Chlorobenzyl ((S)-1-(((S)-5-((4-chlorophenethyl)(methyl)amino)-1,5-dioxopentan-2-yl)amino)-3-cyclohexyl-1-oxopropan-2-yl)carbamate] | 8.7 | 63 | 31 |  |  |
| O=C[C@H](CCC(=O)N1CCOCc2ccccc21)NC(=O)[C@H](CC1CCCCC1)NC(=O)OCc1cccc(Cl)c1 [Compound A108, 3-Chlorobenzyl ((S)-3-cyclohexyl-1-(((S)-5-(2,3-dihydrobenzo[e][1,4]oxazepin-1(5H)-yl)-1,5-dioxopentan-2-yl)amino)-1-oxopropan-2-yl)carbamate] | 8 | 13.4 |  |  |  |
| CN(CCc1ccccc1)C(=O)CC[C@H](NC(=O)[C@H](CC1CCCCC1)NC(=O)OCc1cccc(Cl)c1)C(O)S(=O)(=O)O (stereo in doubt) [Compound A114, Sodium (2S)-2-((S)-2-((((3-chlorobenzyl)oxy)carbonyl)amino)-3-cyclohexylpropanamido)-1-hydroxy-5-(methyl (phenethyl)amino)-5-oxopentane-1-sulfonate] | 5.2 | 12.1 |  |  |  |
| O=C[C@H](CCC(=O)N1CCOc2ccccc2C1)NC(=O)[C@H](CC1CCCCC1)NC(=O)OCc1cccc(Cl)c1 [Compound A57, 3-Chlorobenzyl ((S)-3-cyclohexyl-1-(((S)-5-(2,3-dihydrobenzo[f][1,4]oxazepin-4(5H)-yl)-1,5-dioxopentan-2-yl)amino)-1-oxopropan-2-yl)carbamate] | 2.3 | 2.6 |  |  |  |
| CCCCCCCC1CC/C=C/CC(C(=O)NC)C[C@@H](C(=O)N(C)OC)NC(=O)C(CC(C)C)NC(=O)O1 (single isomer, unassigned) [Compound B34] |  |  | > 200 |  |  |
| CCCCCCCCC(=O)N[C@@H](CC(C)C)C(=O)N[C@H](CO)CCC(=O)NC [Compound A110, N—((S)-1-(((S)-1-hydroxy-5-(methylamino)-5-oxopentan-2-yl)amino)-4-methyl-1-oxopentan-2-yl)nonanamide] |  |  | > 200 |  |  |
| CCCCCCCC1CCCCCC(C(=O)N(C)C)CC(C=O)NC(=O)[C@H](CC(C)C)NC1=O (stereo in doubt) [Compound B18, (2S,5S)-5-formyl-13-heptyl-2-isobutyl-N,N-dimethyl-3,14-dioxo-1,4-diazacyclotetradecane-7-carboxamide] |  |  | > 200 |  |  |
| CCCCCCCC1CC/C=C/CC(C(=O)NC)C[C@@H](C(=O)N(C)OC)NC(=O)C(CC(C)C)NC(=O)O1 (single isomer, unassigned) [Compound B35] |  |  | > 200 |  |  |
| CCCCCCCCC(=O)N[C@@H](CC(C)C)C(=O)NC1CCC(=O)N(C)C1(O)C(=O)NC(C)C (stereo in doubt) [Compound A4, (3S)-2-hydroxy-N-isopropyl-1-methyl-3-((S)-4-methyl-2-nonanamidopentanamido)-6-oxopiperidine-2-carboxamide] |  |  | > 200 |  |  |
| CCOP(=O)(OCC)C(O)[C@@H]1CC2(CC=CCCCC(Cc3ccccc3)C(=O)N[C@@H](CC(C)C)C(=O)N1)CCNC2=O (stereo partly drawn) [Compound B23, Diethyl (((7S,10S)-13-benzyl-10-isobutyl-1,9,12-trioxo-2,8,11-triazaspiro[4.14]nonadec-17-en-7-yl)(hydroxy)methyl)phosphonate] |  |  | 46.5 |  |  |
| O=C[C@H](CCC(=O)N1CCc2ccccc2CC1)NC(=O)[C@H](CC1CCCCC1)NC(=O)OCc1cccc(Cl)c1 (stereo in doubt) [Compound A118, 3-Chlorobenzyl ((S)-3-cyclohexyl-1-(((S)-1,5-dioxo-5-(1,2,4,5-tetrahydro-3H-benzo[d]azepin-3-yl)pentan-2-yl)amino)-1-oxopropan-2-yl)carbamate] | 6.6 | 74.2 |  |  |  |
| CCCCCCCC1CC/C=C/CC(C(=O)NC)C[C@@H](CO)NC(=O)[C@H](CC(C)C)NC(=O)O1 (stereo partly drawn) [Compound B63, (4S,7S,E)-15-heptyl-7-(hydroxymethyl)-4-isobutyl-N-methyl-2,5-dioxo-1-oxa-3,6-diazacyclopentadec-11-ene-9-carboxamide] |  |  | 30 |  |  |
| O=C[C@H](CCC(=O)N1CCCCc2ccccc21)NC(=O)[C@H](CC1CCCCC1)NC(=O)OCc1cccc(Cl)c1 [Compound A107, 3-Chlorobenzyl ((S)-3-cyclohexyl-1-(((S)-1,5-dioxo-5-(2,3,4,5-tetrahydro-1H-benzo[b]azepin-1-yl)pentan-2-yl)amino)-1-oxopropan-2-yl)carbamate] | 39.6 | 200 |  |  |  |
